Measurements reported in paper PMC6222646, “HIV-1 Integrase-Targeted Short Peptides Derived from a Viral Protein R Sequence” (Molecules : A Journal of Synthetic Chemistry and Natural …, 2018).
Values joined by “and” are separate entries in the source; they are usually repeats but may differ in a detail not shown here. Identical values can stand only once. Where a SMILES comes first, the peptide text is derived from it. [ ]: non-standard residue; d: D form. Bpa = N[C@@H](Cc1ccc(C(=O)c2ccccc2)cc1)C(=O)O

Experiments:
HIV-1 integrase (IN) [1] = target: T1, HIV-1 integrase (IN) (Human immunodeficiency virus type 1 group M subtype B, UniProt P12497); assay: In vitro integrase catalytic assay, 3'-processing (3'-P); assay type: biochemical; details: 400 nM IN, 20 nM 32P-labeled 21T/21B DNA, 37 °C, 2 h
Protocol: (§1) IN reactions were performed as previously described. […] Reactions were performed at 37 °C (2 h) and quenched by the addition of an equal volume of loading buffer (formamide containing 1% sodium dodecyl sulfate, 0.25% bromophenol blue, and xylene cyanol). Reaction products were separated in 16% polyacrylamide denaturing sequencing gels. Dried gels were visualized using a Typhoon 8600 instrument (GE Healthcare, Chicago, IL, USA). Densitometric analyses were performed using ImageQuant 5.1 software (GE Healthcare, Chicago, IL, USA). Data analyses (linear regression, 50% inhibitory concentration [IC50] determination, standard deviation [SD]) were performed from at least 3 independent determinations using Prism 5.0c software from GraphPad (La Jolla, CA, USA). To assay 3′-P inhibitory potency, reactions were carried out with [γ-^32P]-labeled full-length oligonucleotide 21T ([…]) annealed to the complementary oligonucleotide 21B ([…]). Formation of the shorter processed 19T products was monitored and quantified to assess enzyme performance and inhibitor potency. The ST reactions were carried out with the [γ-^32P]-labeled pre-cleaved oligonucleotide 19T ([…]) annealed to the complementary oligonucleotide 21B ([…]) and formation of integration products (longer and slower migrating than the starting 19T substrate) was monitored to assess enzyme performance and inhibitor potency.

HIV-1 integrase (IN) [2] = target: T1, HIV-1 integrase (IN); assay: In vitro integrase catalytic assay, strand transfer (ST); assay type: biochemical; details: 400 nM IN, 20 nM 32P-labeled pre-cleaved 19T/21B DNA, 37 °C, 2 h
Protocol: as §1

Row | SMILES | IC50 (HIV-1 integrase (IN) [1]) | IC50 (HIV-1 integrase (IN) [2])
1 | CC[C@H](C)[C@H](NC(=O)[C@H](CCCNC(=N)N)NC(=O)[C@H](Cc1ccccc1)NC(=O)[C@H](Cc1c[nH]cn1)NC(=O)[C@@H](NC(=O)[C@@H](N)Cc1ccccc1)[C@@H](C)CC)C(=O)N[C@@H](C)C(N)=O [Peptide 2b, FIHFRIA-amide] (H-FIHFRIA-NH2) | > 111 µM | 60.6 ± 8 µM
2 | CC[C@H](C)[C@H](NC(=O)[C@H](C)N)C(=O)N[C@@H](Cc1c[nH]cn1)C(=O)N[C@@H](Cc1ccccc1)C(=O)N[C@@H](CCCNC(=N)N)C(=O)N[C@H](C(=O)NCC(N)=O)[C@@H](C)CC [Peptide 8b, AIHFRIG-amide] (H-AIHFRIG-NH2) | > 111 µM | > 111 µM
3 | CC[C@H](C)[C@H](NC(=O)[C@H](CCCNC(=N)N)NC(=O)[C@H](Cc1ccccc1)NC(=O)[C@H](Cc1c[nH]cn1)NC(=O)[C@H](C)NC(=O)[C@@H](N)Cc1ccccc1)C(=O)NCC(=O)O [Peptide 7a, FAHFRIG] (H-FAHFRIG-OH) | > 111 µM | 73.5 ± 6 µM
4 | CC[C@H](C)[C@H](NC(=O)[C@H](CCCNC(=N)N)NC(=O)[C@H](Cc1ccccc1)NC(=O)[C@H](Cc1c[nH]cn1)NC(=O)[C@H](C)NC(=O)[C@@H](N)Cc1ccccc1)C(=O)NCC(N)=O [Peptide 7b, FAHFRIG-amide] (H-FAHFRIG-NH2) | > 111 µM | > 111 µM
5 | CC[C@H](C)[C@H](NC(=O)[C@H](CCCNC(=N)N)NC(=O)[C@H](Cc1ccccc1)NC(=O)[C@H](Cc1c[nH]cn1)NC(=O)[C@@H](NC(=O)[C@@H](N)Cc1ccccc1)[C@@H](C)CC)C(=O)N[C@@H](C)C(=O)O [Peptide 2a, FIHFRIA] (H-FIHFRIA-OH) | > 111 µM | 34.7 ± 2.3 µM
6 | CC[C@H](C)[C@H](NC(=O)[C@H](C)NC(=O)[C@H](Cc1ccccc1)NC(=O)[C@H](Cc1c[nH]cn1)NC(=O)[C@@H](NC(=O)[C@@H](N)Cc1ccccc1)[C@@H](C)CC)C(=O)NCC(=O)O [Peptide 4a, FIHFAIG] (H-FIHFAIG-OH) | > 111 µM | > 111 µM
7 | CC[C@H](C)[C@H](NC(=O)[C@H](CCCNC(=N)N)NC(=O)[C@H](Cc1ccccc1)NC(=O)[C@H](Cc1c[nH]cn1)NC(=O)[C@@H](NC(=O)[C@H](Cc1ccccc1)NC(C)=O)[C@@H](C)CC)C(=O)N[C@@H](C)C(N)=O [Peptide 2c, Ac-FIHFRIA-amide] (Ac-FIHFRIA-NH2) | 74.5 ± 7 µM | 30.4 ± 0.7 µM
8 | CC[C@H](C)[C@H](NC(=O)[C@H](CCCNC(=N)N)NC(=O)[C@H](Cc1ccccc1)NC(=O)[C@H](C)NC(=O)[C@@H](NC(=O)[C@H](Cc1ccccc1)NC(C)=O)[C@@H](C)CC)C(=O)NCC(N)=O [Peptide 6c, Ac-FIAFRIG-amide] (Ac-FIAFRIG-NH2) | 94 ± 13 µM | 3.5 ± 0.3 µM
9 | CC[C@H](C)[C@H](NC(=O)[C@@H](N)Cc1ccccc1)C(=O)N[C@@H](Cc1c[nH]cn1)C(=O)N[C@@H](Cc1ccccc1)C(=O)N[C@@H](CCCNC(=N)N)C(=O)N[C@@H](Cc1ccc(C(=O)c2ccccc2)cc1)C(=O)NCC(=O)O [Peptide 9a, FIHFRBG] (H-FIHFR[Bpa]G-OH) | 20 ± 3 µM | 4 µM and 4.3 µM
10 | CC[C@H](C)[C@H](NC(=O)[C@H](CCCNC(=N)N)NC(=O)[C@H](Cc1ccccc1)NC(=O)[C@H](Cc1c[nH]cn1)NC(=O)[C@@H](NC(=O)[C@@H](N)Cc1ccccc1)[C@@H](C)CC)C(=O)NCC(N)=O [Peptide 1b, FIHFRIG-amide] (H-FIHFRIG-NH2) | 31.5 ± 6 µM | 7.3 ± 0.8 µM
11 | CC[C@H](C)[C@H](NC(=O)[C@H](C)N)C(=O)N[C@@H](Cc1c[nH]cn1)C(=O)N[C@@H](Cc1ccccc1)C(=O)N[C@@H](CCCNC(=N)N)C(=O)N[C@H](C(=O)NCC(=O)O)[C@@H](C)CC [Peptide 8a, AIHFRIG] (H-AIHFRIG-OH) | 86.3 ± 5 µM | 22.7 ± 1.4 µM
12 | CC[C@H](C)[C@H](NC(=O)[C@@H](N)Cc1ccccc1)C(=O)N[C@@H](Cc1c[nH]cn1)C(=O)N[C@@H](Cc1ccccc1)C(=O)N[C@@H](CCCNC(=N)N)C(=O)N[C@@H](C)C(=O)NCC(=O)O [Peptide 3a, FIHFRAG] (H-FIHFRAG-OH) | 66.5 ± 7 µM | 22.4 ± 1.7 µM
13 | CC[C@H](C)[C@H](NC(=O)[C@H](CCCNC(=N)N)NC(=O)[C@H](Cc1ccccc1)NC(=O)[C@H](Cc1c[nH]cn1)NC(=O)[C@@H](NC(=O)[C@H](Cc1ccccc1)NC(C)=O)[C@@H](C)CC)C(=O)NCC(N)=O [Peptide 1c, Ac-FIHFRIG-amide] (Ac-FIHFRIG-NH2) | 23.5 ± 3 µM | 4.7 ± 0.3 µM
